Experimental data from patent US20240041708A1, “DEHYDRATED SOAP AND CLEANER TABLET COMPOSITION” (HAPPY GO LUCKY LLC, priority 2022, published 2024).
“Also recorded” adds a separate entry of the source.

What was measured:
Candida albicans = conditions: fungus Candida albicans; cited from earlier work
environmental microbes = test: Rehydrated tablet stability testing (daily scent, clarity, particulates, pressure; pass/fail); conditions: as preservative in Comparative Examples 3 and 4
Excerpt: The key goals for the present invention, given that it is intended to be used for bottles that will be refilled many times to reduce plastic waste, are for the rehydrated formula to: • (a) be stable once rehydrated, meaning that the solution would no discernible microbial growth over a multi-month period of time and would maintain its physical characteristics, and • (b) work within an acceptable manufacturing process (both physically and in terms of cost).
In terms of physical characteristics measured, once the test tablets had been rehydrated, several observables were tracked each day such as scent, clarity, presence of particulates and pressure.
Scent was measured by comparing the scent each day to the original scent of an initially rehydrated bottle. When microbial activity is present it can create compounds, which add a distinctly unpleasant odor to the compositions. 2 Given the sensitivity of the human nose to such compounds, this would be a clear aesthetic failure for the product even if overall microbial growth remained below a level that could be harmful or otherwise impact use.
Regarding clarity, initially rehydrated solutions are completely transparent. […]
Once the initial dissolution process is complete, a rehydrated solution should contain no free-floating particulates. The appearance of any particles within the solution was recorded and visually evaluated. […]

mold/mildew/yeast/fungi = conditions: cited from earlier work
algae = conditions: cited from earlier work
fungus and yeast = test: Growth inhibition of fungus and yeast by IPBC; assay type: cell-based; conditions: 100 ppm to 160 ppm
Excerpt: (§1) In Examples 1 and 2, the concentration of IPBC was in the 100 ppm to 160 ppm range. This range inhibits the growth of all three categories of microbes. An amount of 100 ppm is a minimum safe amount to inhibit most types of microbial growth.

[1] = at comparable concentrations; cited from earlier work
bacteria = test: Inhibitory effect of IPBC against bacteria tested; assay type: cell-based
Excerpt: as §1

Compound | MIC (Candida albicans) | effectiveness in stability testing (preservation) (environmental microbes) | minimum inhibitory concentration (MIC) (mold/mildew/yeast/fungi) | minimum inhibitory concentration (MIC) (algae) | inhibition of growth of fungus and yeast (fungus and yeast) | comedogenicity [1] | concentration with inhibitory effect against most bacteria tested (bacteria)
O=C([O-])c1ccccc1.[Na+] [sodium benzoate, reference compound] | about 2500 ppm | – | – | – | – | – | –
benzalkonium chloride [BKC] | – | somewhat effective; also recorded: better preservation than other non-IPBC-containing compositions tested | – | – | – | – | –
iodopropynyl butylcarbamate [IPBC] | about 8 ppm | – | ≤ 10 ppm | ≤ 50 ppm | significantly inhibits | noncomedogenic | 100 ppm
